# Assay results published in PubChem BioAssay (NCI).
#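 Compound exposure: 48 hours, 5 concentrations, 96-well plates. Abbreviation: GI50, concentration required for 50% inhibition of growth. The concentration for full growth arrest is given as TGI.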
# Columns and labels:
# Assay in all cases: inhibition of tumour cell growth, NCI panel, 48 h
# [1] = system: OVCAR-5 ovarian
# [2] = system: EKVX NSCLC
# [3] = system: SNB-19 CNS
# [4] = system: SW-620 colon
# [5] = system: IGROV1 ovarian
# [6] = system: 786-0 renal
# [7] = system: HOP-62 NSCLC
# [8] = system: HCT-116 colon
# [9] = system: NCI-H460 lung
# [10] = system: MDA-MB-435
Compound,GI50 [1],TGI [1],GI50 [2],TGI [2],GI50 [3],TGI [3],GI50 [4],TGI [4],GI50 [5],TGI [5],GI50 [6],TGI [6],TGI [7],TGI [8],TGI [9],GI50 [7],GI50 [8],GI50 [9],GI50 [10],TGI [10]
CCCCCCCC(=O)[O-].CCCCCCCC(=O)[O-].N.N.N.N.[Co+3].[O-][Cl+3]([O-])([O-])[O-],> 100000 nM,> 100 µM,> 100000 nM,> 100 µM,> 100 µM,> 100 µM,> 100000 nM,> 100 µM,40.3 µM,> 100 µM,> 100 µM,> 100 µM,,,,,,,,
O=C(c1ccccc1)c1nnn(Cc2ccccc2Cn2nnc(C(=O)c3ccccc3)c2C(=O)c2ccccc2)c1C(=O)c1ccccc1,,> 100 µM,,> 100 µM,,> 100 µM,,> 100 µM,,> 100 µM,,> 100 µM,> 100 µM,> 100 µM,> 100 µM,,,,,
O=c1c2ccccc2oc2ccccc12 (tested in a mixture with another compound),,,,> 100 µM,,> 100 µM,,> 100 µM,,22.1 µM,,> 100 µM,> 100 µM,> 100 µM,25.9 µM,,,,,
FC(F)c1ncc(-c2ccc(C(F)(F)F)cc2)c(NC2CCCCCC2)n1,> 10000 nM,> 10 µM,,,> 10 µM,> 10 µM,> 10000 nM,> 10 µM,> 10 µM,> 10 µM,> 10 µM,> 10 µM,> 10 µM,> 10 µM,> 10 µM,> 10 µM,> 10000 nM,> 10 µM,> 10000 nM,> 10 µM
CC(C)N(C(=O)C12C3C4C5(C(=O)O)C(C1C35I)C42C(=O)O)C(C)C (stereo not drawn),,> 100 µM,,> 100 µM,,> 100 µM,,> 100 µM,,> 100 µM,,> 100 µM,> 100 µM,> 100 µM,> 100 µM,,,,,
Cc1ccccc1-n1c(=S)[nH]c2c(sc(=O)n2-c2ccccc2C)c1=O,,> 100 µM,,> 100 µM,,> 100 µM,,> 100 µM,,> 100 µM,,> 100 µM,> 100 µM,> 100 µM,> 100 µM,,,,,
CCOC(=O)c1c(-c2ccccc2)[n+](=O)c2cc(F)c(F)cc2n1[O-],2230 nM,4.13 µM,1730 nM,3.47 µM,1.95 µM,3.45 µM,494 nM,3.57 µM,0.701 µM,> 100 µM,2.01 µM,3.64 µM,3.24 µM,0.584 µM,,1.42 µM,238 nM,,1930 nM,3.6 µM
O=c1cc[nH]cc1-c1c[nH]ccc1=O,,,,> 100 µM,,,,> 100 µM,,> 100 µM,,> 100 µM,,> 100 µM,> 100 µM,,,,,
CCC(C)(O)c1cn(-c2ccc(Cl)cc2)nn1 (stereo not drawn),,> 100 µM,,> 100 µM,,> 100 µM,,> 100 µM,,> 100 µM,,> 100 µM,> 100 µM,> 100 µM,> 100 µM,,,,,
COC(=O)C(=O)C(C(=O)C(=O)Nc1ccccc1[N+](=O)[O-])c1nc2ccc([N+](=O)[O-])cc2[nH]c1=O (stereo not drawn),,> 100 µM,,> 100 µM,,> 100 µM,,> 100 µM,,> 100 µM,,> 100 µM,,> 100 µM,> 100 µM,,,,,
CC(C)(C)c1ccc(C2CC(=O)C3=C(C2)Nc2ccccc2N(C(=O)c2ccccc2Cl)C3c2ccc(F)cc2)cc1 (stereo not drawn),> 100000 nM,> 100 µM,,,> 100 µM,> 100 µM,> 100000 nM,> 100 µM,> 100 µM,> 100 µM,> 100 µM,> 100 µM,> 100 µM,> 100 µM,> 100 µM,> 100 µM,> 100000 nM,> 100 µM,> 100000 nM,> 100 µM
CN1CCC(c2c(O)cc(O)c3c(=O)cc(-c4ccccc4Cl)oc23)C(O)C1 (stereo not drawn),68.7 nM,0.602 µM,,0.135 µM,,> 100 µM,53.2 nM,> 100 µM,0.0827 µM,> 100 µM,,> 100 µM,,,> 100 µM,,,,,
Brc1cc(C2OCCCO2)ccc1OCc1ccccc1,,92.5 µM,,> 100 µM,,> 100 µM,,> 100 µM,,> 100 µM,,> 100 µM,> 100 µM,,> 100 µM,,,,,
CN1CCN=C1c1nnn(-c2ccc([N+](=O)[O-])cc2)c1-c1ccccc1,,> 100 µM,,> 100 µM,,> 100 µM,,> 100 µM,,> 100 µM,,> 100 µM,> 100 µM,> 100 µM,> 100 µM,,,,,
CS(=O)(=O)c1ccc(COP(N)(=O)N(CCCl)CCCl)cc1 (stereo not drawn),,> 100 µM,,,,> 100 µM,,> 100 µM,,> 100 µM,,> 100 µM,> 100 µM,> 100 µM,> 100 µM,,,,,
O=C1OCC2=C1C(c1cccc(C(F)(F)F)c1)c1cc3c(cc1N2CCO)OCCO3 (stereo not drawn),1750 nM,> 33.3 µM,1330 nM,> 33.3 µM,1.63 µM,> 33.3 µM,1240 nM,> 33.3 µM,2.75 µM,> 33.3 µM,1.81 µM,> 33.3 µM,> 33.3 µM,> 33.3 µM,> 33.3 µM,1.31 µM,1420 nM,1.22 µM,,
CCOC(=O)[C@@]12C(C)=CC(=O)O[C@]1(C)C1C(=O)NC(=O)C12 (stereo partly drawn),,,,> 100 µM,,> 100 µM,,> 100 µM,,> 100 µM,,> 100 µM,> 100 µM,> 100 µM,> 100 µM,,,,,
CC(C)[P+](c1ccccc1)(c1ccccc1)c1ccccc1,28500 nM,> 100 µM,,,5.54 µM,> 100 µM,6830 nM,> 100 µM,14.3 µM,> 100 µM,32.5 µM,> 100 µM,> 100 µM,> 100 µM,> 100 µM,19 µM,3940 nM,6.92 µM,2650 nM,25.3 µM
